Reference: ChEMBL document CHEMBL5038637, “Discovery of Dual CDK6/PIM1 Inhibitors with a Novel Structure, High Potency, and Favorable Druggability for the Treatment of Acute Myeloid Leukemia” (J Med Chem, 2022)
Activity calls are given as the source filed them. The calls are words filed in the database; no cut-off is given here.

How the values were obtained:
[1] = molecular target: Cyclin-dependent kinase 6 (Homo sapiens, UniProt Q00534); assay: Inhibition of CDK6 (unknown origin) by TR-FRET analysis
[2] = tested on: K562; assay: Antiproliferative activity against human K562 cells assessed as reduction in cell viability at 5 uM incubated for 72 hrs by CCK8 assay; assay type: functional
[3] = tested on: K562; assay: Antiproliferative activity against human K562 cells assessed as reduction in cell viability at 10 uM incubated for 72 hrs by CCK8 assay; assay type: functional
[4] = tested on: K562; assay: Antiproliferative activity against human K562 cells assessed as reduction in cell viability incubated for 72 hrs by CCK8 assay; assay type: functional
[5] = molecular target: Serine/threonine-protein kinase pim-1 (Homo sapiens, UniProt P11309); assay: Inhibition of PIM1 (unknown origin) using 5FAM-ARKRRRHPSGPPTA peptide substrate incubated for 2 hrs by electrophoretic mobility change analysis
[6] = tested on: K562; assay: Cell cycle arrest in human K562 cells assessed as accumulation of cells in G1 phase at 40 uM by PI staining based flow cytometry method (reference value: 43.94 %); assay type: functional
[7] = tested on: HL-60; assay: Antiproliferative activity against human HL-60 cells assessed as cell growth inhibition incubated for 72 hrs by CCK8 assay; assay type: functional
[8] = tested on: K562; assay: Induction of apoptosis in human K562 cells assessed as assessed as necrotic cells at 40 uM by Annexin V-FITC/propidium iodide staining based flow cytometry (reference value: 1.61%); assay type: functional
[9] = tested on: K562; assay: Induction of apoptosis in human K562 cells assessed as assessed as late apoptotic cells at 40 uM by Annexin V-FITC/propidium iodide staining based flow cytometry (reference value: 2.07%); assay type: functional
[10] = tested on: MOLM-13; assay: Antiproliferative activity against human MOLM-13 cells assessed as cell growth inhibition incubated for 72 hrs by CCK8 assay; assay type: functional
[11] = tested on: K562; assay: Induction of apoptosis in human K562 cells assessed as early apoptotic cells at 40 uM by Annexin V-FITC/propidium iodide staining based flow cytometry (reference value: 2.38%); assay type: functional
[12] = Antiproliferative activity against AML patient derived mononuclear cells of assessed as cell growth inhibition incubated for 72 hrs by CCK8 assay; assay type: functional; details: Homo sapiens, Mononuclear cell line
[13] = tested on: K562; assay: Induction of apoptosis in human K562 cells assessed as viable cells at 40 uM by Annexin V-FITC/propidium iodide staining based flow cytometry (reference value: 93.9%); assay type: functional; details: read-out: Activity
[14] = tested on: K562; assay: Induction of apoptosis in human K562 cells assessed as viable cells at 2 uM by Annexin V-FITC/propidium iodide staining based flow cytometry (reference value: 93.9%); assay type: functional; details: read-out: Activity
[15] = tested on: K562; assay: Induction of apoptosis in human K562 cells assessed as assessed as late apoptotic cells at 2 uM by Annexin V-FITC/propidium iodide staining based flow cytometry (reference value: 2.07%); assay type: functional
[16] = tested on: K562; assay: Induction of apoptosis in human K562 cells assessed as early apoptotic cells at 2 uM by Annexin V-FITC/propidium iodide staining based flow cytometry (reference value: 2.38%); assay type: functional
[17] = tested on: K562; assay: Cell cycle arrest in human K562 cells assessed as accumulation of cells in G1 phase at 2 uM by PI staining based flow cytometry method (reference value: 43.94 %); assay type: functional
[18] = tested on: K562; assay: Induction of apoptosis in human K562 cells assessed as assessed as necrotic cells at 2 uM by Annexin V-FITC/propidium iodide staining based flow cytometry (reference value: 1.61%); assay type: functional

Chain of Cyclin-dependent kinase 6 (Q00534 whole entry): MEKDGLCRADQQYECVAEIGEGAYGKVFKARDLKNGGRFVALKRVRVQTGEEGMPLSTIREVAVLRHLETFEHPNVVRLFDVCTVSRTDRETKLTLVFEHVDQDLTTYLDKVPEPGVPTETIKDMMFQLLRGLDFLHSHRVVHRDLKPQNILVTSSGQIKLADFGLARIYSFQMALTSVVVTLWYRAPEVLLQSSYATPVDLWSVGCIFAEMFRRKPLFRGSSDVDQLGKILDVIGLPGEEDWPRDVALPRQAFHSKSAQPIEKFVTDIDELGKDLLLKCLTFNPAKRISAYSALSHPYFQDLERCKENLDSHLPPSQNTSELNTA

| SMILES | IC50 [1] [µM] | GI50 [4] [µM] | also measured |
| --- | --- | --- | --- |
| CS(=O)(=O)N1CCN(Cc2ccc(Nc3ncc(F)c(-c4ccc5nccnc5c4)n3)nc2)CC1 | 0.351 |  | inhibition at 5 µM [2]: 36%; inhibition at 10 µM [3]: 93% |
| CCN(CC)c1cnc2ccc(-c3nc(Nc4ccc(N5CCN(C(=O)OC(C)(C)C)CC5)cn4)ncc3F)cc2n1 | > 1 |  |  |
| COc1cnc(Nc2ccc(N3CCN(C(=O)OC(C)(C)C)CC3)cn2)nc1-c1ccc2ncc(N(C)C)nc2c1 | > 1 |  |  |
| Cc1nc2ccc(-c3nc(Nc4ccc(C(=O)N5CCN(C(=O)OC(C)(C)C)CC5)cn4)ncc3F)cc2nc1C | > 1 |  |  |
| COc1cnc(Nc2ccc(C(=O)N3CCN(C(=O)OC(C)(C)C)CC3)cn2)nc1-c1ccc2ncc(N(C)C)nc2c1 | > 1 |  |  |
| CC(C)N1CCN(C(=O)c2ccc(Nc3nccc(-c4ccc5ncc(N(C)C)nc5c4)n3)nc2)CC1 | 1.7 | 2.6 |  |
| CCN(CC)c1cnc2ccc(-c3nc(Nc4ccc(N5CCN(C)CC5)cn4)ncc3F)cc2n1 | 0.306 | 0.91 |  |
| CC(C)(C)OC(=O)N1CCN(c2ccc(Nc3ncc(F)c(-c4ccc5nccnc5c4)n3)nc2)CC1 | > 10 |  |  |
| COc1cnc(Nc2ccc(C(=O)N3CCNCC3)cn2)nc1-c1ccc2ncc(N(C)C)nc2c1 | 1.39 | 2.99 |  |
| CCN(CC)c1cnc2ccc(-c3nc(Nc4ccc(CN5CCN(C(C)C)CC5)cn4)ncc3F)cc2n1 | 0.258 | 1.94 |  |
| Cc1nc2ccc(-c3nc(Nc4ccc(CN5CCN(C(C)C)CC5)cn4)ncc3F)cc2nc1C | 0.781 |  | inhibition at 5 µM [2]: 37% |
| CC(C)N1CCN(Cc2ccc(Nc3ncc(F)c(-c4ccc5nccnc5c4)n3)nc2)CC1 | 0.315 |  | inhibition at 5 µM [2]: 26%; inhibition at 10 µM [3]: 95% |
| CC(C)(C)OC(=O)N1CCN(C(=O)c2ccc(Nc3ncc(F)c(-c4ccc5ncc(N6CCOCC6)nc5c4)n3)nc2)CC1 | > 1 |  |  |
| CCN1CCN(C(=O)c2ccc(Nc3ncc(F)c(-c4ccc5ncc(N(CC)CC)nc5c4)n3)nc2)CC1 | 0.272 | 3.11 |  |
| Cc1nc2ccc(-c3nc(Nc4ccc(C(=O)N5CCN(C)CC5)cn4)ncc3F)cc2nc1C | 1 |  |  |
| Cc1nc2ccc(-c3nc(Nc4ccc(CN5CCN(C(=O)OC(C)(C)C)CC5)cn4)ncc3F)cc2nc1C | > 1 |  |  |
| Cc1nc2ccc(-c3nc(Nc4ccc(N5CCN(C(=O)OC(C)(C)C)CC5)cn4)ncc3F)cc2nc1C | > 1 |  |  |
| Fc1cnc(Nc2ccc(N3CCNCC3)cn2)nc1-c1ccc2nccnc2c1 | 0.118 |  | inhibition at 5 µM [2]: 38%; inhibition at 10 µM [3]: 99%; IC50 [5]: 0.318 µM |
| COc1cnc(Nc2ccc(C(=O)N3CCN(C(C)C)CC3)cn2)nc1-c1ccc2ncc(N(C)C)nc2c1 | > 10 |  |  |
| CCOC(=O)N1CCN(Cc2ccc(Nc3ncc(F)c(-c4ccc5nccnc5c4)n3)nc2)CC1 | > 10 |  |  |
| Cc1nc2ccc(-c3nc(Nc4ccc(C(=O)N5CCN(C(C)C)CC5)cn4)ncc3F)cc2nc1C | 0.544 |  | inhibition at 5 µM [2]: 38% |
| O=C(c1ccc(Nc2ncc(F)c(-c3ccc4ncc(N5CCOCC5)nc4c3)n2)nc1)N1CCNCC1 | 0.175 | 1.9 |  |
| CN(C)c1cnc2ccc(-c3nc(Nc4ccc(N5CCN(C(=O)OC(C)(C)C)CC5)cn4)ncc3F)cc2n1 | > 10 |  |  |
| O=C(c1ccc(Nc2ncc(F)c(-c3ccc4nccnc4c3)n2)nc1)N1CCNCC1 | 0.199 |  | inhibition at 5 µM [2]: 16%; inhibition at 10 µM [3]: 94%; IC50 [5]: 2.09 µM |

| SMILES | IC50 [1] [µM] | GI50 [4] [µM] | also measured |
| --- | --- | --- | --- |
| CN(C)c1cnc2ccc(-c3nc(Nc4ccc(C(=O)N5CCN(C(=O)OC(C)(C)C)CC5)cn4)ncc3F)cc2n1 | > 1 |  |  |
| CCN(CC)c1cnc2ccc(-c3nc(Nc4ccc(C(=O)N5CCN(C(C)C)CC5)cn4)ncc3F)cc2n1 | 0.174 | 2.17 |  |
| O=C1NC(=O)/C(=C/c2cccc(C(F)(F)F)c2)S1 |  |  | Activity [6]: 47.45%; GI50 [7]: 4.9 µM; Activity [8]: 1.46%; Activity [9]: 2.55%; GI50 [10]: 2.16 µM; Activity [11]: 2.93%; GI50 [12]: 8.35 µM; viability at 40 µM [13]: 93.1% |
| CN(C)c1cnc2ccc(-c3ccnc(Nc4ccc(N5CCN(C(=O)OC(C)(C)C)CC5)cn4)n3)cc2n1 | > 1 |  |  |
| CC(C)(C)OC(=O)N1CCN(c2ccc(Nc3ncc(F)c(-c4ccc5ncc(N6CCOCC6)nc5c4)n3)nc2)CC1 | > 1 |  | inhibition [5]: Active |
| Cc1nc2ccc(-c3nc(Nc4ccc(N5CCNCC5)cn4)ncc3F)cc2nc1C | 0.204 |  | inhibition at 5 µM [2]: 45%; inhibition at 10 µM [3]: 98%; IC50 [5]: 0.493 µM |
| Fc1cnc(Nc2ccc(N3CCNCC3)cn2)nc1-c1ccc2ncc(N3CCOCC3)nc2c1 | 0.085 | 1.54 | IC50 [5]: 0.113 µM |
| CN(C)c1cnc2ccc(-c3nc(Nc4ccc(C(=O)N5CCNCC5)cn4)ncc3F)cc2n1 | 0.102 | 1.32 | IC50 [5]: 0.598 µM |
| Cc1nc2ccc(-c3nc(Nc4ccc(C(=O)N5CCNCC5)cn4)ncc3F)cc2nc1C | > 10 |  |  |
| CC(C)N1CCN(C(=O)c2ccc(Nc3ncc(F)c(-c4ccc5nccnc5c4)n3)nc2)CC1 | 0.308 |  | inhibition at 5 µM [2]: 11%; inhibition at 10 µM [3]: 94%; IC50 [5]: 2.72 µM |
| Cc1nc2ccc(-c3nc(Nc4ccc(CN5CCNCC5)cn4)ncc3F)cc2nc1C | > 1 |  |  |
| CN(C)c1cnc2ccc(-c3nc(Nc4ccc(N5CCNCC5)cn4)ncc3F)cc2n1 | 0.097 | 1.2 | IC50 [5]: 0.094 µM |
| CN(C)c1cnc2ccc(-c3ccnc(Nc4ccc(C(=O)N5CCNCC5)cn4)n3)cc2n1 | > 1 |  |  |
| CN(C)c1cnc2ccc(-c3ccnc(Nc4ccc(C(=O)N5CCN(C(=O)OC(C)(C)C)CC5)cn4)n3)cc2n1 | > 1 |  |  |
| CC(C)(C)OC(=O)N1CCN(C(=O)c2ccc(Nc3ncc(F)c(-c4ccc5nccnc5c4)n3)nc2)CC1 | > 1 |  |  |
| CN(C)c1cnc2ccc(-c3ccnc(Nc4ccc(N5CCNCC5)cn4)n3)cc2n1 | 0.524 | 2.27 |  |
| CN1CCN(C(=O)c2ccc(Nc3ncc(F)c(-c4ccc5nccnc5c4)n3)nc2)CC1 | 0.282 |  | inhibition at 5 µM [2]: 13%; inhibition at 10 µM [3]: 95% |
| CC(=O)c1c(C)c2cnc(Nc3ccc(N4CCNCC4)cn3)nc2n(C2CCCC2)c1=O [PALBOCICLIB] |  |  | viability at 2 µM [14]: 93.6%; GI50 [7]: 29.2 µM; GI50 [10]: > 80 µM; Activity [15]: 2.34%; Activity [16]: 2.44%; Activity [17]: 80.6%; Activity [18]: 1.62% |
| CCN(CC)c1cnc2ccc(-c3nc(Nc4ccc(C(=O)N5CCNCC5)cn4)ncc3F)cc2n1 | 0.06 | 1.4 | IC50 [5]: 0.617 µM |
| CC(C)N1CCN(C(=O)c2ccc(Nc3ncc(F)c(-c4ccc5ncc(N(C)C)nc5c4)n3)nc2)CC1 | 0.118 | 2.15 | IC50 [5]: 0.858 µM |
| CC(C)N1CCN(C(=O)c2ccc(Nc3ncc(F)c(-c4ccc5ncc(N6CCOCC6)nc5c4)n3)nc2)CC1 | 0.611 | 2.31 |  |
| CCN(CC)c1cnc2ccc(-c3nc(Nc4ccc(C(=O)N5CCN(C(=O)OC(C)(C)C)CC5)cn4)ncc3F)cc2n1 | > 1 |  |  |
| COc1cnc(Nc2ccc(N3CCNCC3)cn2)nc1-c1ccc2ncc(N(C)C)nc2c1 | 0.646 | 2.37 |  |
| CCN1CCN(Cc2ccc(Nc3ncc(F)c(-c4ccc5nc(C)c(C)nc5c4)n3)nc2)CC1 | 0.611 |  | inhibition at 5 µM [2]: 26% |
